# Key:
# Wzb = molecular target: T1, Wzb (Lacticaseibacillus rhamnosus, UniProt Q58Z13); assay: p-nitrophenol release, absorbance […] nm; type: biochemical; details: 5 mM pNPP, 0.25 µM enzyme, 1.0 mM Co2+ (also Ni2+ or Mn2+), 92 mM Tris-HCl pH 7.5, 75 °C, 15 min
# T1 sequence (Q58Z13 1-254): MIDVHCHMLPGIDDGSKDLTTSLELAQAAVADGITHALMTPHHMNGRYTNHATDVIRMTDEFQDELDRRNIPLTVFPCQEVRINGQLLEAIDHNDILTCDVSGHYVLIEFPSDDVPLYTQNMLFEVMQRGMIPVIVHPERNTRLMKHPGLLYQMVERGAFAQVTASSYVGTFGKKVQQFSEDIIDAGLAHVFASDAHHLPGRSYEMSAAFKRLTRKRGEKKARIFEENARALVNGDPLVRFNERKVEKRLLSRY
# Cap8C = Cap8C (Staphylococcus aureus, UniProt P72369); assay: p-nitrophenol release, absorbance […] nm; type: biochemical; details: 5 mM pNPP, 0.25 µM enzyme, 1.0 mM Co2+ (also Ni2+ or Mn2+), 92 mM Tris-HCl pH 7.5, 75 °C, 15 min
# Cap8C, sequence (P72369 entry or part of it): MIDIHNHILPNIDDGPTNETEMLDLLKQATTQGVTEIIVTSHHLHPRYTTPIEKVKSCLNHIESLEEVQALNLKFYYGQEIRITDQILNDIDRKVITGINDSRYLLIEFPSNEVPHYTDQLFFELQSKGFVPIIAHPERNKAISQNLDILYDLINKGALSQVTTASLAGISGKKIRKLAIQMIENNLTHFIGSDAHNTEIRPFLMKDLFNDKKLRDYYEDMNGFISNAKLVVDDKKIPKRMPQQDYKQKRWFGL
smiles,measurement,setting,value
O=[N+]([O-])c1ccc(OP(=O)(O)O)cc1 [p-nitrophenylphosphate],"p-nitrophenol release, absorbance 405 nm",Wzb,Lactobacillus rhamnosus Wzb proteins were established to have phosphatase activity using pNPP as substrate
same,"p-nitrophenol release, absorbance 405 nm",Cap8C,Cap8C and Lactobacillus rhamnosus Wzb proteins were established to have phosphatase activity using pNPP

# Source: publication PMC10816263, “Thermophilic PHP Protein Tyrosine Phosphatases (Cap8C and Wzb) from Mesophilic Bacteria” (International Journal of Molecular Sciences, 2024)
